In US4931436A, “Condensed diazepinones, processes for preparing them and pharmaceutical compositions containing these compounds” (Dr. Karl Thomae GmbH, priority 1988, dated 1990):
Structures can show the parent of a compound that is named as a salt. Where two headings read alike, the source gives them in different places.

Tests used:
[1] = biological target: T1, muscarinic receptors (heart) (Rattus norvegicus, UniProt P10980); assay: Receptor binding test in vitro, 3H-NMS displacement, whole heart; parameters: species or system rat (male Sprague-Dawley)
T1 construct: The whole heart was cut up with scissors; from tissue; host or cells: whole heart of male Sprague-Dawley rats, homogenate
T1 sequence (P10980 1-466): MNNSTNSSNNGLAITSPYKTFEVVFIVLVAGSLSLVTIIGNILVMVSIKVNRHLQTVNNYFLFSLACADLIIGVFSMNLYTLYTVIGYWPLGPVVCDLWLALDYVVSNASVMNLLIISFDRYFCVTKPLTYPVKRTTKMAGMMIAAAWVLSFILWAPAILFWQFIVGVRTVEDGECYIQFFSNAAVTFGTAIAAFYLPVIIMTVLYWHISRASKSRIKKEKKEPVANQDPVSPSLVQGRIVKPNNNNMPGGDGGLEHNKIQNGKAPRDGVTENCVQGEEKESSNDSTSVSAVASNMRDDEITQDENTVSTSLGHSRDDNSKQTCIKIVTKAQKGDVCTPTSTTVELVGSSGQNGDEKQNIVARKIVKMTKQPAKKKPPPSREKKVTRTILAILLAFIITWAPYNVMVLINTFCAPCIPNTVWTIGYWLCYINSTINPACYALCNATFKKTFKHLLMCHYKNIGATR
Experimental: The organs were donated by male Sprague-Dawley rats weighing 180-220 g. After the heart and submandibular gland had been removed, all other steps were carried out in ice cold Hepes HCl buffer (pH 7.4; 100 mmolar NaCl, 10 mmolar MgCl2). The whole heart was cut up with scissors. All the organs were then homogenised in a Potter apparatus.
For the binding test the homogenised organs were diluted as follows:
The homogenised organs were incubated at a certain concentration of the radioligand and at a series of concentrations of the non-radioactive test substances in an Eppendorf centrifuge tube at 30° C. Incubation lasted 45 minutes. […] Incubation was ended by the addition of ice cold buffer followed by vacuum filtration. The filters were rinsed with cold buffer and their radioactivity was determined. […] Each measurement was taken four times. The IC50 values of the non-labelled test substances were determined graphically.

[2] = biological target: muscarinic receptors (submandibular gland) (Rattus norvegicus, UniProt P08483); assay: biochemical; type: binding, rat (male Sprague-Dawley); conditions: in vitro, 0.3 nmolar 3H-NMS, 45 min, 30° C., read-out: log IC50, Submandibular gland (converted)
[3] = biological target: T2, M2 (Rattus norvegicus, UniProt P10980); assay: M2 activity in the rat: inhibition of bradycardia caused by vagus stimulation; type: in vivo, rat (male THOM); conditions: iv, 5 min, 50% reduction of vagal bradycardia
T2 construct: The bradycardia caused by vagus stimulation; from tissue; host or cells: heart of the living male THOM rat
T2 sequence (P10980 1-466): T1 sequence (P10980 1-466)
Experimental: The method used was described by Hammer and Giachetti (Life Sciences 31, 2991-2998 (1982)). 5 minutes after the intravenous injection of increasing doses of the substance, either the right vagus was electrically stimulated (frequency: 25 Hz; pulse width: 2 ms; duration of stimulus: 30 s; voltage: supramaximal) or 0.3 mg/kg of McN-A-343 were intravenously injected into male THOM rats. The bradycardia caused by vagus stimulation and the rise in blood pressure caused by McN-A-343 were determined. The dosage of the substances which reduced either the vagal bradycardia (M2) or the rise in blood pressure (M1) by 50% was determined graphically. For the results see Table II.

[4] = biological target: T3, M1 (Rattus norvegicus, UniProt P08482); assay: M1 activity in the rat: inhibition of rise in blood pressure caused by McN-A-343; type: in vivo, rat (male THOM); conditions: iv, 5 min, read-out: M1 activity (rat) ED50
T3 construct: from tissue; host or cells: living male THOM rat (site of action, sympathetic ganglia, is own knowledge)
T3 sequence (P08482 1-460): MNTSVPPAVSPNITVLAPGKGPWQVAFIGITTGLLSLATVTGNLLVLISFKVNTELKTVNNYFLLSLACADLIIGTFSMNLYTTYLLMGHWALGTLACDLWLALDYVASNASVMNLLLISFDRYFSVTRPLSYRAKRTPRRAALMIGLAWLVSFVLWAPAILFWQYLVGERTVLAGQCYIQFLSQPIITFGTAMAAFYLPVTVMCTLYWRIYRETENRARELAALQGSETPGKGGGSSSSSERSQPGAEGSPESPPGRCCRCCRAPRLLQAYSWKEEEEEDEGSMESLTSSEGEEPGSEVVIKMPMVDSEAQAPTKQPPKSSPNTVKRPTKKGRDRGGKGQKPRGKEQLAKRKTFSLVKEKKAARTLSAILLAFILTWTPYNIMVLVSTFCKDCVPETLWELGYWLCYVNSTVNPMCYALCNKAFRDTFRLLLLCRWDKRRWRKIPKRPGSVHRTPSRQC
Experimental: The dosage of the substances which reduced either the vagal bradycardia (M2) or the rise in blood pressure (M1) by 50% was determined graphically. For the results see Table II.

[5] = Solubility in water; type: physicochemical
[6] = biological target: T4, muscarinic receptors of the atrium (Cavia porcellus, UniProt H0VRN8); assay: Dissociation constants (KB values) on the isolated spontaneously beating right atrium; parameters: species or system guinea pig; conditions: spontaneously beating atrium, guinea pig, methacholine, 30 minutes contact; read-out: KB, Heart
T4 construct: isolated, spontaneously beating, right atrium; from tissue; host or cells: isolated spontaneously beating right atrium of the guinea pig
T4 sequence (H0VRN8 1-466): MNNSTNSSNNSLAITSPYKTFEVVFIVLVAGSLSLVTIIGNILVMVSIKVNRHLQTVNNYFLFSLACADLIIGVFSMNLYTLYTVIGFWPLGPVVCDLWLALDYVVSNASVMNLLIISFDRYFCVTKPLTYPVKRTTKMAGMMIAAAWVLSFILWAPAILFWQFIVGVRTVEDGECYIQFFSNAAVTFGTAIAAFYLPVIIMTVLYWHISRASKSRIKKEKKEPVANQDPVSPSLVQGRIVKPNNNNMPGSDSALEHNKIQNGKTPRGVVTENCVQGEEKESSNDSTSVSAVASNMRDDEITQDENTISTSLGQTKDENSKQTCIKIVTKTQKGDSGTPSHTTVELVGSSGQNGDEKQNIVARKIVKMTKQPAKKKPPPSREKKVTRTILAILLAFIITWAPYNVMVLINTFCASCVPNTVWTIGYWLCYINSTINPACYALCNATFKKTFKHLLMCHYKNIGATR
Experimental: (§1) Dissociation constants (KB values) were determined "in vitro" on the ileum and spontaneously beating atrium of the guinea pig. The ileum was taken out and incubated in Krebs-Henseleit solution in an organ bath. Contractions were induced by increasing concentrations of methacholine (M) so that total concentration/activity curves could be recorded. M was then washed out, the test substance was added and kept in contact for 30 minutes and another concentration/activity curve was recorded with M.
(§2) Dissociation constants for the muscarinic receptors of the atrium were obtained in the manner described above.

[7] = tested on: muscarinic receptors of the atrium; assay: as above; parameters: species or system guinea pig; conditions: guinea pig heart and ileum in vitro
Experimental: as §1, §2

[8] = biological target: T5, muscarinic receptors (ileum) (Cavia porcellus, UniProt H0W1Z3); assay: Dissociation constants (KB values) on the isolated ileum; conditions: guinea pig, methacholine, 30 minutes contact
T5 construct: from tissue; host or cells: isolated ileum of the guinea pig
Experimental: as §1

[9] = biological target: T6, muscarinic receptors (heart, atrium) (Rattus norvegicus, UniProt P10980); assay: Receptor binding test in vivo (3H-NMS), atrium; parameters: species or system rat (female)
T6 construct: from tissue; host or cells: heart (atrium, ventricle) of female rats, labelled in vivo
T6 sequence (P10980 1-466): T1 sequence (P10980 1-466)
Experimental: (§3) For these experiments, female rats with a body weight of about 200 g were used. Before the start of the experiment the animals were anaesthetised with a dose of 1.25 g/kg of urethane. The animals were given the dosage of test substance by i.v. injection. After 15 minutes, 113 ng/kg of ^3 H-N-methylscopolamine (^3 H-NMS) were given by the same route. After another 15 minutes the animals were killed and their heart, bronchi and lachrymal glands were taken out. These organs were dissolved in Soluene R and the radioactivity was measured. These measurements were taken as representing total binding. […] The ID50 values for the individual organs were determined from these experiments. […]

[10] = biological target: T7, muscarinic receptors (heart, ventricle) (Rattus norvegicus, UniProt P10980); assay: Receptor binding test in vivo (3H-NMS), ventricle; parameters: species or system rat (female); conditions: iv, 0.5 h, read-out: ID50, Heart, Ventricle
T7 construct: from tissue; host or cells: heart (atrium, ventricle) of female rats, labelled in vivo
T7 sequence (P10980 1-466): T1 sequence (P10980 1-466)
Experimental: as §3

[11] = tested on: muscarinic receptors (bronchi); assay: Receptor binding test in vivo (3H-NMS), bronchi; parameters: species or system rat (female); conditions: i.v., in vivo 3H-NMS binding, rat; 30 min
Experimental: as §3

[12] = biological target: muscarinic receptors (lachrymal glands) (Rattus norvegicus, UniProt P08483); assay: in vivo; conditions: for ED50: iv, 0.5 h, read-out: ID50, Lachrymal glands
Experimental: as §3

[13] = tested on: heart rate; assay: Inhibition of acetylcholine activity on heart rate; type: in vivo, guinea pig; conditions: Cavia porcellus, 5 min, read-out: log ED50, Heart
Experimental: (§4) 5 minutes after the administration of the test substance, 10 mcg/kg of acetylcholine were simultaneously injected intravenously and intra-arterially into anaesthetised guinea pigs. The heart rate was recorded directly by extracorporeal derivation of the ECG, the expiration resistance according to Konzett-Rossler and contraction of the exposed bladder. In order to determine the inhibition of the acetylcholine activity on the organs under investigation, dosage/activity curves were recorded and from them -log ED50 values were determined.

[14] = tested on: bladder; assay: Inhibition of acetylcholine activity on the bladder (contraction of the exposed bladder); type: in vivo, guinea pig; conditions: Cavia porcellus, 5 min, read-out: log ED50, Bladder
Experimental: as §4

[15] = i.v., 50% reduction of McN-A-343 rise in blood pressure

Sequence of muscarinic receptors (submandibular gland) (P08483 whole entry): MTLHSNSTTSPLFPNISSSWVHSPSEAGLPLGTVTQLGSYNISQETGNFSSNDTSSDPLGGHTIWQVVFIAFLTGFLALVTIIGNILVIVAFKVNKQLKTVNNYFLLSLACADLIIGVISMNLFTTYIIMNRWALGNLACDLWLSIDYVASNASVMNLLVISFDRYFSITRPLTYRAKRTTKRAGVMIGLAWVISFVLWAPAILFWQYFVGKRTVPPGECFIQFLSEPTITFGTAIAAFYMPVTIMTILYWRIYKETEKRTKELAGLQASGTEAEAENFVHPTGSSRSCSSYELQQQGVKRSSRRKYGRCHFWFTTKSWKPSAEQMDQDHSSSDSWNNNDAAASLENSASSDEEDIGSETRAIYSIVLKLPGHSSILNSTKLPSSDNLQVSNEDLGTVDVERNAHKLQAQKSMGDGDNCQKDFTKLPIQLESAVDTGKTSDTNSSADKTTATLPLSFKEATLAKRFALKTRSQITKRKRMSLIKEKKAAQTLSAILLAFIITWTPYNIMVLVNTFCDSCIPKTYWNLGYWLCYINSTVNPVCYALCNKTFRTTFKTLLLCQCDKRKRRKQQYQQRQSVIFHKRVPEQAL
Sequence of muscarinic receptors (lachrymal glands) (P08483 whole entry): as above
T5 sequence (H0W1Z3 1-590): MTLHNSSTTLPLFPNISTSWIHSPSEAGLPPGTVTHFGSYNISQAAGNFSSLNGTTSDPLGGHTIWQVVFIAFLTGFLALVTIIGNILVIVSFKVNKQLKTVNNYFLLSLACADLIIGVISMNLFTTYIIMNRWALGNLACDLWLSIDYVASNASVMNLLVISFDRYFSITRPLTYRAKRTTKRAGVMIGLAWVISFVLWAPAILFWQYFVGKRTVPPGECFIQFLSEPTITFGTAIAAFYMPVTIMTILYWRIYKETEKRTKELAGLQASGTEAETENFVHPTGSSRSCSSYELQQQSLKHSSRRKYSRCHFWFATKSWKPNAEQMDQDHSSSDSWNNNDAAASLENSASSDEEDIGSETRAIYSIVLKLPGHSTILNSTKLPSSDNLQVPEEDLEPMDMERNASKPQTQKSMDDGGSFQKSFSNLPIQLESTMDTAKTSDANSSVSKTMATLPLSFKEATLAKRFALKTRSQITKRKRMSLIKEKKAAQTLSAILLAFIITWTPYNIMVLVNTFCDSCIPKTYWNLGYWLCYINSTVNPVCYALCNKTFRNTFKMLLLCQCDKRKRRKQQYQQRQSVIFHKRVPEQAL

With O=C1Nc2ccccc2N(C(=O)N2CCCC(CCN3CCCCC3)C2)c2ncccc21 (stereo not drawn) [Substance G, 6,11-dihydro-11-[[3-[2-(1-piperidinyl)ethyl]-1-piperidinyl]carbonyl]-5H-pyrido[2,3-b][1,5]benzodiazepin-5-one] the “Selectivity factor: ratio IC50 submandibular gland to IC50 heart” value [1] was 10, the IC50 [2] was 39.8 nM and the ED50 [3] was 0.00813 mg/kg. It also gave an ED50 [4, 15] of 0.00716 mg/kg.

For Cl.O=C1Nc2cccnc2N(C(=O)N2CCCC(CCCN3CCCC3)C2)c2ccccc21 (stereo not drawn) [Substance B, 5,11-dihydro-11-[[3-[3-(1-pyrrolidinyl)propyl]-1-piperidinyl]carbonyl]-6H-pyrido[2,3-b][1,4]benzodiazepin-6-one-hydrochloride], the “Selectivity factor: ratio IC50 submandibular gland to IC50 heart” value [1] was 4 and the IC50 [2] was 39.8 nM.

With CCN(CC)CCCCC1CCCCN1C(=O)N1c2ccccc2C(=O)Nc2cccnc21 (stereo not drawn) [Example 4 dihydrochloride] the “solubility in water (in words)” value [5] was “water soluble”.

In the case of O=C1Nc2cccnc2N(C(=O)N2CCCC(CCN3CCCC3)C2)c2ccccc21 (stereo not drawn) [Substance D, 5,11-dihydro-11-[[3-[2-(1-pyrrolidinyl)ethyl]-1-piperidinyl]carbonyl]-6H-pvrido[2,3-b][1,4]benzodiazepin-6-one-hydrochloride], the “Selectivity factor: ratio IC50 submandibular gland to IC50 heart” value [1] is reported as 8.3 and the IC50 [2] is reported as 50.1 nM.

With O=C1Nc2cccnc2N(C(=O)N2CCCC(CCCN3CCCCC3)C2)c2ccccc21 (stereo not drawn) [Substance A, 5,11-dihydro-11-[[3-[3-(1-piperidinyl)propyl]-1-piperidinyl]carbonyl]-6H-pyrido[2,3-b][1,4]-benzodiazepin-6-one] the “Selectivity factor: ratio IC50 submandibular gland to IC50 heart” value [1] was 10, the IC50 [2] was 20 nM and the ED50 [3] was 0.0069 mg/kg. For the same molecule, the ED50 [4, 15] was 0.049 mg/kg, the Kb [6] was 0.347 nM and the “effectiveness compared with X and Y, Table III (in words)” value [7] was “significantly more effective than X and Y”. For the same molecule, the “selectivity heart vs smooth muscle, Table III (in words)” value [7] was “a clear selectivity in favour of the heart”, the Kb [8] was 3.23 nM and the “potency on the heart compared with X and Y, Table IV (in words)” value ([9]; in vivo binding) was “significant improvement in potency compared with substances X and Y on the heart”. For the same molecule, the ED50 ([10]; i.v., in vivo 3H-NMS binding) was 0.005 mg/kg, the “ID50, Bronchi” value [11] was 0.06 mg/kg and the “Ratio of ID50 in the lachrymal glands to ID50 in the atrium” value ([12]; in vivo binding) was 20.

With CN(CCC1CCCN(C(=O)N2c3ccccc3C(=O)Nc3cccnc32)C1)C1CCCC1 (stereo not drawn) [Substance E] the “Selectivity factor: ratio IC50 submandibular gland to IC50 heart” value [1] was 10 and the IC50 [2] was 30.2 nM.

In the case of CS(=O)(=O)O.O=C1Nc2cccnc2N(C(=O)N2CCCC(CCCN3CCCCC3)C2)c2ccccc21 (stereo not drawn) [Example 1 methanesulphonate, 5,11-dihydro-11-[[3-[3-(1-piperidinyl)propyl]-1-piperidinyl]carbonyl]-6H-pyrido[2,3-b][1,4]benzodiazepin-6-one-methanesulphonate], the “solubility in water (in words)” value [5] is reported as “readily soluble in water”.

For CS(=O)(=O)O.O=C1Nc2cccnc2N(C(=O)N2CCCC(CCN3CCCCC3)C2)c2ccccc21 (stereo not drawn) [Substance C, 5,11-dihydro-11-[[3-[2-(1-piperidinyl)ethyl]-1-piperidinyl]carbonyl]-6H-pyrido[2,3-b][1,4]benzodiazepin-6-one-methanesulphonate], the “Selectivity factor: ratio IC50 submandibular gland to IC50 heart” value [1] was 10, the IC50 [2] was 30.2 nM and the ED50 [3] was 0.0076 mg/kg. The ED50 [4, 15] was 0.039 mg/kg.

With Cl.O=C1Nc2cccnc2N(C(=O)N2CCCC(CCN3CCCCCC3)C2)c2ccccc21 (stereo not drawn) [Substance F, 5,11-dihydro-11-[[3-[2-(hexahydro-1H-1-azepinyl)ethyl]-1-piperidinyl]carbonyl]-6H-pyrido[2,3-b][1,4]-benzodiazepin-6-one-hydrochloride] the “Selectivity factor: ratio IC50 submandibular gland to IC50 heart” value [1] was 10 and the IC50 [2] was 30.2 nM.

Work on CN1[C@@H]2CC[C@H]1C[C@@H](OC(=O)C(CO)c1ccccc1)C2 (stereo partly drawn) [Substance Z, atropine, reference compound] yielded an ED50 [4] of 0.016 mg/kg, a Kb [6] of 1.41 nM and an ED50 ([9]; iv, 0.5 h, read-out: ID50, Heart, Atrium) of 0.08 mg/kg. The ED50 [10] was 0.03 mg/kg, the “ID50, Bronchi” value [11] was 0.1 mg/kg and the ED50 [12] was 0.2 mg/kg. It also gave an ED50 [13] of 0.02 µmol/kg and an ED50 [14] of 0.0933 µmol/kg.

For CCN(CC)CC1CCCCN1CC(=O)N1c2ccccc2C(=O)Nc2cccnc21 (stereo not drawn) [Substance X, 11-[[2-[(diethylamino)methyl]-1-piperidinyl]acetyl]-5,11-dihydro-6H-pyrido[2,3-b][1,4]benzodiazepin-6-one], the ED50 [12] was > 30 mg/kg.
